Measured values from US20230157296A1, “METHODS OF REDUCING FUSARIUM CONTAMINATION” (Taminco BV, priority 2020, published 2023).

Tested on: F. oxysporum f. sp. cubense (Foc TR4)
Assay: Panama disease analysis of soil samples after metam sodium field injection
Assay type: in vivo, Fusarium oxysporum f. sp. Cubense Tropical Race 4
Protocol: Metam Sodium Application. Metam sodium 510 SL (equivalent to 42% w/w) was applied to soil at the following doses: 0 liters per hectare (L/ha), 750 L/ha, 1500 L/ha, 2250 L/ha, 3000 L/ha.
Prior to injection, soil was prepared using a rototiller to break the soil structure from 0 cm to 80 cm deep, allowing for the smooth and even injection application by an injection machine. The soil was then leveled and made uniform, and the metam sodium was applied at two depths: 30 cm and 60 cm, using injection methods. The temperature was at a minimum of 10° C. and soil humidity was between 50 and 60% holding capacity, allowing the applied product to transform from metam sodium (liquid) to MITC (gas).
The application was made using an injection machine wherein the machine lowered shanks and began moving forward such that the shanks lowered to a depth of 60 cm and injectors applied the metam sodium into the soil. When the injection at 60 cm was complete, the process was repeated for the entire field at 30 cm. The treated soil in the field was then sealed using a packer roller (which was part of the injection machinery, located at the back end of the machine), after each application.
Soil Analysis. Soil samples were obtained at 20, 40, and 60 cm before application and every 24 hours beginning 48 hours after application, for seven days.
Plant Pathology Analysis. Soil samples used for Panama Disease and nematode analyses were aseptically isolated in culture medium and incubated for seven days at room temperature. Organisms were identified as follows: 20 grams of composite soil sample was diluted with 40 mL distilled water (dH2O); 1 drop of Tween 20 detergent was added, and the sample mixed. A 1 mL aliquot was taken from the solution and diluted with 9 mL dH2O; three further serial dilutions were made. From each dilution, 100 µL were spread on solid Komada growth medium (Sun et al., Phytopathology 68: 1672-1673, 1978). Growth could be seen 7 days after inoculation.

CNC(=S)[S-].[Na+] [metam sodium, sodium N-methyldithiocarbamate]
-: Panama Disease F. oxysporum f. sp. cubense (Day 3, 40 cm, T5 3000 L/ha) | Panama Disease F. oxysporum f. sp. cubense (Day 3, 60 cm, T2 750 L/ha) | Panama Disease F. oxysporum f. sp. cubense (Day 3, 60 cm, T3 1500 L/ha) | Panama Disease F. oxysporum f. sp. cubense (Day 3, 60 cm, T4 2250 L/ha) | Panama Disease F. oxysporum f. sp. cubense (Day 3, 60 cm, T5 3000 L/ha) | Panama Disease F. oxysporum f. sp. cubense (Day 4, 20 cm, T2 750 L/ha) | Panama Disease F. oxysporum f. sp. cubense (Day 4, 20 cm, T3 1500 L/ha) | Panama Disease F. oxysporum f. sp. cubense (Day 4, 20 cm, T4 2250 L/ha) | Panama Disease F. oxysporum f. sp. cubense (Day 4, 20 cm, T5 3000 L/ha) | Panama Disease F. oxysporum f. sp. cubense (Day 4, 40 cm, T2 750 L/ha) | Panama Disease F. oxysporum f. sp. cubense (Day 4, 40 cm, T3 1500 L/ha) | Panama Disease F. oxysporum f. sp. cubense (Day 4, 40 cm, T4 2250 L/ha) | Panama Disease F. oxysporum f. sp. cubense (Day 4, 40 cm, T5 3000 L/ha) | Panama Disease F. oxysporum f. sp. cubense (Day 4, 60 cm, T2 750 L/ha) | Panama Disease F. oxysporum f. sp. cubense (Day 4, 60 cm, T3 1500 L/ha) | Panama Disease F. oxysporum f. sp. cubense (Day 4, 60 cm, T4 2250 L/ha) | Panama Disease F. oxysporum f. sp. cubense (Day 4, 60 cm, T5 3000 L/ha) | Panama Disease F. oxysporum f. sp. cubense (Day 5, 20 cm, T2 750 L/ha) | Panama Disease F. oxysporum f. sp. cubense (Day 5, 20 cm, T3 1500 L/ha) | Panama Disease F. oxysporum f. sp. cubense (Day 5, 20 cm, T4 2250 L/ha) | Panama Disease F. oxysporum f. sp. cubense (Day 5, 20 cm, T5 3000 L/ha) | Panama Disease F. oxysporum f. sp. cubense (Day 5, 40 cm, T2 750 L/ha) | Panama Disease F. oxysporum f. sp. cubense (Day 5, 40 cm, T3 1500 L/ha) | Panama Disease F. oxysporum f. sp. cubense (Day 5, 40 cm, T4 2250 L/ha) | Panama Disease F. oxysporum f. sp. cubense (Day 5, 40 cm, T5 3000 L/ha) | Panama Disease F. oxysporum f. sp. cubense (Day 5, 60 cm, T2 750 L/ha) | Panama Disease F. oxysporum f. sp. cubense (Day 5, 60 cm, T3 1500 L/ha) | Panama Disease F. oxysporum f. sp. cubense (Day 5, 60 cm, T4 2250 L/ha) | Panama Disease F. oxysporum f. sp. cubense (Day 5, 60 cm, T5 3000 L/ha) | Panama Disease F. oxysporum f. sp. cubense (Day 6, 20 cm, T2 750 L/ha) | Panama Disease F. oxysporum f. sp. cubense (Day 6, 20 cm, T3 1500 L/ha) | Panama Disease F. oxysporum f. sp. cubense (Day 6, 20 cm, T4 2250 L/ha) | Panama Disease F. oxysporum f. sp. cubense (Day 6, 20 cm, T5 3000 L/ha) | Panama Disease F. oxysporum f. sp. cubense (Day 6, 40 cm, T2 750 L/ha) | Panama Disease F. oxysporum f. sp. cubense (Day 6, 40 cm, T3 1500 L/ha) | Panama Disease F. oxysporum f. sp. cubense (Day 6, 40 cm, T4 2250 L/ha) | Panama Disease F. oxysporum f. sp. cubense (Day 6, 40 cm, T5 3000 L/ha) | Panama Disease F. oxysporum f. sp. cubense (Day 6, 60 cm, T2 750 L/ha) | Panama Disease F. oxysporum f. sp. cubense (Day 6, 60 cm, T3 1500 L/ha) | Panama Disease F. oxysporum f. sp. cubense (Day 6, 60 cm, T4 2250 L/ha) | Panama Disease F. oxysporum f. sp. cubense (Day 6, 60 cm, T5 3000 L/ha) | Panama Disease F. oxysporum f. sp. cubense (Day 7, 20 cm, T2 750 L/ha) | Panama Disease F. oxysporum f. sp. cubense (Day 7, 20 cm, T3 1500 L/ha) | Panama Disease F. oxysporum f. sp. cubense (Day 7, 20 cm, T4 2250 L/ha) | Panama Disease F. oxysporum f. sp. cubense (Day 7, 20 cm, T5 3000 L/ha) | Panama Disease F. oxysporum f. sp. cubense (Day 7, 40 cm, T2 750 L/ha) | Panama Disease F. oxysporum f. sp. cubense (Day 7, 40 cm, T3 1500 L/ha) | Panama Disease F. oxysporum f. sp. cubense (Day 7, 40 cm, T4 2250 L/ha) | Panama Disease F. oxysporum f. sp. cubense (Day 7, 40 cm, T5 3000 L/ha) | Panama Disease F. oxysporum f. sp. cubense (Day 7, 60 cm, T2 750 L/ha) | Panama Disease F. oxysporum f. sp. cubense (Day 7, 60 cm, T3 1500 L/ha) | Panama Disease F. oxysporum f. sp. cubense (Day 7, 60 cm, T4 2250 L/ha) | Panama Disease F. oxysporum f. sp. cubense (Day 7, 60 cm, T5 3000 L/ha)
No Foc TR4 was detected: soil contamination: Foc TR4 detection (any of the treated groups (750-3000 L/ha), any day post application)
